# Data taken from patent publication US20090111810A1, “SUBSTITUTED PYRIMIDINE-5-CARBOXAMIDE AND 5-CARBOXYLIC ESTER KINASE INHIBITORS” (priority 2007, published 2009).
# Experiments:
# [1] = molecular target: T1, EGFR kinase (GST fusion of intracellular portion of EGFR, NM_005228) (Homo sapiens, UniProt P00533); assay: EGFR Kinase Assay; type: biochemical; conditions: for inhibition at 2 µM: test concentration of 2 μM
# T1 construct: The intracellular portion of EGFR started at nucleotide 2189 (corresponding to amino acid 667) and ended at the termination codon; made in house; host or cells: Sf9 insect cells (baculovirus)
# T1 sequence (P00533 669-1210 limits assumed): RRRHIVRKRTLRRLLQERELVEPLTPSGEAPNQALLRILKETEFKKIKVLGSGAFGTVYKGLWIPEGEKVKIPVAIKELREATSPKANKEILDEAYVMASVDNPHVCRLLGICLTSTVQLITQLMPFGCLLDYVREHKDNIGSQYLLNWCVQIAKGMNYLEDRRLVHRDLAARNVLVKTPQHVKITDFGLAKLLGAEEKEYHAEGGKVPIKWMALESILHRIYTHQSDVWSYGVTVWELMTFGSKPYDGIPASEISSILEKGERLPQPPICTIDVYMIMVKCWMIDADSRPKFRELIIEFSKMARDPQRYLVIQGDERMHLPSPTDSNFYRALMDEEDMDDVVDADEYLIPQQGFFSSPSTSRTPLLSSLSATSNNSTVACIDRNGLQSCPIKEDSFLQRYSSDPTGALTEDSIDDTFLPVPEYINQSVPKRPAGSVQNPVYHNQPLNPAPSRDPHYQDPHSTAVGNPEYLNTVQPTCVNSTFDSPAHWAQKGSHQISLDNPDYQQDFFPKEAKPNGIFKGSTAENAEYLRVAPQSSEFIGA
# Text: The portion was PCR amplified with primers that added the lambda attB sequences to each end, recombined into an entry vector, then into a (GST destination vector (as described in Gateway Technologies Manual by Invitrogen Corporation, Carlsbad, Calif.).
# The destination vector was recombined in the DH10BAC strain of bacteria to produce a bacmid. The bacmid was transfected into Sf 9 cells and the supernatant containing the baculovirus was collected. The GSTEGFR protein was purified using large cultures of Sf 9 cells infected with stock virus. After an appropriate period of time, the cells were collected and lysed. The GSTEGFR was then purified from the lysate on Glutathione-Sepharose columns (as described by Amersham Biosciences, Buckinghamshire, United Kingdom).
# The free biotin was separated from the biotinylated polyGluTyr on a gel filtration column.
# A mixture of a 10× kinase buffer (500 mM Tris at pH 8.0, 100 mM Magnesium Chloride and 1 mM Sodium Vanadate), DTT (1 mM final from 500 mM stock), ATP (5 μM final from […]), biotinylated polyGluTyr (10 μg/μL stock), γ-^33P ATP (10 μCi/μL stock) and water was added to each well (90 μL/well) of a Streptavidin Flashplate (Perkin Elmer, Wellesley, Mass.).
# Test compound in 100% DMSO (2 μL) was added to the appropriate wells. Diluted GSTEGFR (1:300 dilution in 50 mM Tris at pH 8.0 and 0.1% bovine serum albumin) (10 μL) was added to the wells to initiate the reactions.
# The plates were incubated at 30° C. for 1 hr with shaking, The reacted contents were removed and the plates were sequentially washed three times with a 1×PBS stop buffer (300 μL without Magnesium and Calcium) and 100 mM EDTA. After the final wash, the same stop buffer (200 μL) was added to the wells. The plates were then sealed and read on the TopCount scintillation counter.
# Test compounds were assayed in triplicate at 16 concentrations at half-log dilutions starting at 200 μM. A maximum and minimum signal for the assay was determined on each plate. The percent inhibition of a test compound was calculated according to the formula
# (§1) For a series of test concentrations, the IC50 was derived by graphing percent inhibition against the log of the concentrations tested for a given compound.
# [2] = molecular target: T2, HER-2 kinase (GST-HIS6-Thrombin fusion, amino acids 679 to 1255 of HER-2) (Homo sapiens, UniProt P04626); assay: HER-2 Kinase Assay; type: biochemical; conditions: for inhibition at 100 µM: test concentration of 100 μM, read-out: HER2 % inhibition; for IC50: read-out: HER2 IC50
# T2 construct: HIS6-Thrombin site (N); purchased Proqinase (Freiburg, Germany)
# T2 sequence (P04626 679-1255): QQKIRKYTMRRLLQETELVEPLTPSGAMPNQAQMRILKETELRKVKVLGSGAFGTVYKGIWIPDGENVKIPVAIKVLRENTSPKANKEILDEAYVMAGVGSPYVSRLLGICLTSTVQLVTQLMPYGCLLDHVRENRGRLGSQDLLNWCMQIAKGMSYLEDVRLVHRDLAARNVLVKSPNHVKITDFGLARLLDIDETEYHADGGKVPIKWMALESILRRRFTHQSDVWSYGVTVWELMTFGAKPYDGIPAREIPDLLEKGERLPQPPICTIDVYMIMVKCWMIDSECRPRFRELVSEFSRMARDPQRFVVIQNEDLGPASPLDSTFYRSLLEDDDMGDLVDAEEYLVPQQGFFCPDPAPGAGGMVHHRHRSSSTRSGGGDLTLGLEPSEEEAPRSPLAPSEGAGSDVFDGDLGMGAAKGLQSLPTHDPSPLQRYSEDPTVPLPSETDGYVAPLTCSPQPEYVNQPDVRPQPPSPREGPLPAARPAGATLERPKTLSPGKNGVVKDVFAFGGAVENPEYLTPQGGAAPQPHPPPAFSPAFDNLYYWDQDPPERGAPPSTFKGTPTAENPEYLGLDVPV
# Protocol: The HER-2 kinase used was purified at Proqinase (Freiburg, Germany) from a construct that consisted of a fusion of GST (Glutathione-S-Transferase), HIS6-Thrombin and the nucleotides encoding amino acids 679 to 1255 of HER-2 (Accession Number M11730).
# A mixture of a 10× kinase reaction buffer (600 mM Hepes at pH 7.5, 30 mM Magnesium Chloride, 0.03 mM Sodium Vanadate and 500 μg/mL PEG 20,000), DTT (1.2 mM final from a 10 mM stock), ATP (1 μM from a 10 mM stock), biotinylated polyGluTyr (1.5 ng/μL final from stock of 1 μg/μL) prepared by Upstate Biotechnologies, Lake Placid, N.Y.), Manganese Chloride (3 mM final from a 1 M stock), γ-^33P-ATP (10 μCi/μL stock) and water (70 μL/well) was added to each well of a Streptavidin Flashplate (Cat. # SMP103, NEN, Boston, Mass.).
# Test compound stock (1 μL) was added to the appropriate wells. Diluted GSTHER2 kinase (6.7 ng/μL diluted into 50 mM Tris-HCl at pH 8.0 and 0.1% bovine serum albumin) (30 μL) was added (total volume of 200 ng/well) to initiate the reactions.
# The reaction plates were incubated at 30° C. for 1 hr. The reaction was terminated by aspirating the reaction mixture from the plate wells and washing the wells three times with a 1× PBS stop buffer (300 μL) and 100 mM EDTA. After the final wash, the same stop buffer (200 μL) was again added to the wells. The plates were then sealed and read on the TopCount scintillation counter.
# Test compounds were assayed in triplicate at 8 concentrations at one-log dilutions starting at 100 μM. A maximum and minimum signal for the assay was determined on each plate. The percent inhibition of a test compound was calculated according to the formula: […]
# as §1
# [3] = tested on: HeLa cervical adenocarcinoma; assay: Inhibition of in vitro cell proliferation (14C-thymidine incorporation), HeLa; type: cell-based; conditions: Homo sapiens, HeLa cells
# Protocol: (§2) The ability of a test compound to inhibit the proliferation of cell growth was determined by measuring incorporation of ^14C-labelled thymidine into newly synthesized DNA within the cells. This method was used on American Type Culture Collection (ATCC, Virginia) cell lines derived from carcinomas originating from several tissues such as HeLa cervical adenocarcinoma (ATCC Cat. #CCL-2), HCT-116 colon carcinoma (ATCC Cat. #CCL-247), and A375 malignant melanoma (ATCC Cat. #CRL-1619).
# (§3) The carcinoma cells are trypsinized and counted. The cells (3000-8000 count) are added to each well of a 96-well CytoStar tissue culture treated scintillating microplate (Amersham #RPNQ0160) in complete medium (100 μL) and the plate is then incubated in complete medium for 24 hrs at 37° C. in an inert atmosphere containing 5% CO2.
# (§4) Test compound (1 μL) in 100% DMSO is added to the plate test-wells with DMSO only added to control-wells. The plate is incubated in complete medium for a second 24 hr period at 37° C. in an atmosphere containing 5% CO2.
# (§5) An aliquot of a solution of Methyl ^14C-thymidine (56 mC/mmol) (NEN #NEC568 or Amersham #CFA532) in complete medium (20 uL to provide 0.2 μCi/well) is then added to each well and the plate is incubated for a third 24 hr period at 37° C. in an atmosphere containing 5% CO2.
# (§6) The plate contents are then discarded, the plate is washed twice with PBS (200 μL) and then PBS (200 μL) is added to each well. The plate is sealed and the degree of methyl ^14C-thymidine incorporation is quantified on a Packard Top Count.
# HCT-116 colon carcinoma = assay: Inhibition of in vitro cell proliferation (14C-thymidine incorporation), HCT116; type: cell-based; conditions: Homo sapiens, HCT116 cells
# Protocol: as §2, §3, §4, §5, §6
# A375 malignant melanoma = assay: Inhibition of in vitro cell proliferation (14C-thymidine incorporation), A375; type: cell-based; conditions: Homo sapiens, A-375, A375 cells
# Protocol: as §2, §3, §4, §5, §6
inhibition at 2 µM [1] [%],inhibition at 100 µM [2] [%],IC50 [3] [µM],IC50 (HCT-116 colon carcinoma) [µM],IC50 (A375 malignant melanoma) [µM],IC50 [2] [µM],IC50 [1] [µM],Structure (SMILES)
37,33,> 100,> 100,> 100,–,–,"COCCNC(=O)c1c(N)ncnc1Nc1ccc(OCc2ccccc2)c(Cl)c1 [Cpd 6, 4-amino-6-(4-benzyloxy-3-chloro-phenylamino)-pyrimidine-5-carboxylic acid (2-methoxy-ethyl)-amide]"
–,–,> 10,> 10,> 10,0.78,–,"Nc1ncnc(Nc2ccc(OCc3ccccc3)c(Cl)c2)c1C(=O)O [Cpd 2, 4-amino-6-(4-benzyloxy-3-chloro-phenylamino)-pyrimidine-5-carboxylic acid]"
42,–,34,> 10,> 1,10,–,"Nc1ncnc(Nc2ccc(OCc3ccccc3)c(Cl)c2)c1C(=O)NCCN1CCCCC1 [Cpd 7, 4-amino-6-(4-benzyloxy-3-chloro-phenylamino)-pyrimidine-5-carboxylic acid (2-piperidin-1-yl-ethyl)-amide]"
–,92,1.9,3,1,–,–,"COC(=O)c1c(N)ncnc1Nc1ccc(OCc2ccccc2)c(Cl)c1 [Cpd 1, 4-amino-6-(4-benzyloxy-3-chloro-phenylamino)-pyrimidine-5-carboxylic acid methyl ester]"
36,39,> 10,> 10,> 10,–,–,"CCN(CC)C(=O)c1c(N)ncnc1Nc1ccc(OCc2ccccc2)c(Cl)c1 [Cpd 5, 4-amino-6-(4-benzyloxy-3-chloro-phenylamino)-pyrimidine-5-carboxylic acid diethylamide]"
36,0,> 100,> 100,> 100,–,–,"COc1ccc(NC(=O)c2c(N)ncnc2Nc2ccc(OCc3ccccc3)c(Cl)c2)cc1 [Cpd 11, 4-amino-6-(4-benzyloxy-3-chloro-phenylamino)-pyrimidine-5-carboxylic acid (4-methoxy-phenyl)-amide]"
–,–,3,3.4,1.7,0.15,–,"NNC(=O)c1c(N)ncnc1Nc1ccc(OCc2ccccc2)c(Cl)c1 [Cpd 12, 4-amino-6-(4-benzyloxy-3-chloro-phenylamino)-pyrimidine-5-carboxylic acid hydrazide]"
–,63,–,–,–,–,–,"Nc1ncnc(Nc2ccc(OCc3ccccc3)c(Cl)c2)c1C=O [Cpd 14, 4-amino-6-(4-benzyloxy-3-chloro-phenylamino)-pyrimidine-5-carboxaldehyde]"
34,21,> 10,> 10,> 10,–,–,"Nc1ncnc(Nc2ccc(OCc3ccccc3)c(Cl)c2)c1C(=O)OCc1cccc(F)c1 [Cpd 4, 4-amino-6-(4-benzyloxy-3-chloro-phenylamino)-pyrimidine-5-carboxylic acid 3-fluoro-benzyl ester]"
35,82,> 10,> 10,> 10,–,–,"Nc1ncnc(Nc2ccc(OCc3ccccc3)c(Cl)c2)c1C(=O)NCCN1CCOCC1 [Cpd 8, 4-amino-6-(4-benzyloxy-3-chloro-phenylamino)-pyrimidine-5-carboxylic acid (2-morpholin-4-yl-ethyl)-amide]"
–,–,> 100,> 100,> 100,5.7,0.62,"Nc1ncnc(Nc2ccc(OCc3ccccc3)c(Cl)c2)c1C(=O)NNC(=O)CCN1CCOCC1 [Cpd 13, 4-amino-6-(4-benzyloxy-3-chloro-phenylamino)-pyrimidine-5-carboxylic acid N′-(3-morpholin-4-yl-propionyl)-hydrazide]"
–,12,> 100,> 100,> 100,–,–,"Nc1ncnc(Nc2ccc(OCc3ccccc3)c(Cl)c2)c1C(=O)Nc1ccccc1 [Cpd 10, 4-amino-6-(4-benzyloxy-3-chloro-phenylamino)-pyrimidine-5-carboxylic acid phenylamide]"
28,4,> 100,> 100,> 100,–,–,"COc1ccc(CCNC(=O)c2c(N)ncnc2Nc2ccc(OCc3ccccc3)c(Cl)c2)cc1 [Cpd 9, 4-amino-6-(4-benzyloxy-3-chloro-phenylamino)-pyrimidine-5-carboxylic acid [2-(4-methoxy-phenyl)-ethyl]-amide]"

Structure (SMILES),inhibition at 2 µM [1] [%],inhibition at 100 µM [2] [%],IC50 [3] [µM],IC50 (HCT-116 colon carcinoma) [µM],IC50 (A375 malignant melanoma) [µM],IC50 [2] [µM],IC50 [1] [µM]
"Nc1ncnc(Nc2ccc(OCc3ccccc3)c(Cl)c2)c1C(=O)OCCN1CCOCC1 [Cpd 3, 4-amino-6-(4-benzyloxy-3-chloro-phenylamino)-pyrimidine-5-carboxylic acid 2-morpholin-4-yl-ethyl ester]",–,–,> 10,–,5.1,1.38,–
